Test system: B16 melanoma cells
Experiment: Sensitivity of B16 melanoma cells, in vitro cell growth inhibition (Coulter Counter cell count)
Assay type: cell-based
Conditions: Mus musculus, dosage of 500 /ug/ml, aqueous suspension, incubation 20 hours at 37°C, cells counted 48 hours after beginning of incubation, inhibition of cell growth with respect to control
Procedure: The anti-tumor activity was tested in an in vitro test. In this test the sensitivity of B16 melanoma cells to the new compounds according to the invention was determined.
B16 melanoma cells grow as a "monolayer". The doubling time of said cells in a cell culture is 12-16 hours.
On day O a quantity of 5 x 10^4 B 16 melanoma cells is provided in each cell culture dish.
On day 1 the compounds to be tested are vortexed in the presence of glass-beads. The compound to be tested is then addei to the dishes comprising melanoma cells in the desired quantity. Incubation takes place in a CO2--incubator at 37°C for 20 hours. The incubation is terminated by removing the culture medium with therein the compound to be tested, after which the cells are washed twice and fresh medium is added.
Forty-eight hours after the beginninq of the incubation the quantity of cells in each dish is measured by means of a microcell Coulter Counter. The results thus obtained are expressed by indicating the activity cf the compounds as 1+, 2+, 3+, 4+ or 5+, which has the following meaning: • 1+ : cel growth is inhibited 1- 20% with respect to control. • 2+ : cel growth is inhibited 20- 40% with respect to control. • 3+ : cel growth is inhibited 40- 60% with respect to control. • 4+ : cel growth is inhibited 60- 80% with respect to control. • 5+ : cel growth is inhibited 80-100% with respect to control.
Various compounds according to the invention were tested in the above-described manner in a dosage of 500 /ug/ml in the form of an aqueous suspension.

CC(=O)Oc1ccc(C(=O)NC(=O)Nc2ccc(O)cc2)cc1Cl [Compound 48]
inhibition at 500 µg/mL: 60 to 80%

Cc1ccccc1C(=O)NC(=O)Nc1ccc(O)cc1 [Compound 36]
inhibition at 500 µg/mL: 60 to 80%

O=C(NC(=O)c1cc(I)cc(I)c1O)Nc1ccc(Cl)cc1 [Compound 12]
inhibition at 500 µg/mL: 80 to 100%

O=C(NC(=O)c1c(O)cccc1Cl)Nc1ccc(Cl)c(O)c1 [Compound 38]
inhibition at 500 µg/mL: 60 to 80%

O=C(NC(=O)c1c(Cl)ccc(OCc2ccccc2)c1Cl)Nc1ccc(Cl)cc1 [Compound 3]
inhibition at 500 µg/mL: 40 to 60%

O=C(NC(=O)c1ccccc1Cl)Nc1ccc(OC(=O)Cc2ccc(Cl)cc2)c(Cl)c1 [Compound 34]
inhibition at 500 µg/mL: 40 to 60%

CC(=O)Oc1ccc(Cl)c(C(=O)NC(=O)Nc2ccc(C(F)(F)F)cc2)c1Cl [Compound 5]
inhibition at 500 µg/mL: 80 to 100%

O=C(NC(=O)c1c(Cl)cc(O)cc1Cl)Nc1ccc(Cl)c(Cl)c1 [Compound 21]
inhibition at 500 µg/mL: 60 to 80%

O=C(NC(=O)c1ccccc1O)Nc1ccc([N+](=O)[O-])cc1Cl [Compound 10]
inhibition at 500 µg/mL: 60 to 80%

O=C(NC(=O)c1c(F)cccc1F)Nc1ccccc1S [Compound 50]
inhibition at 500 µg/mL: 80 to 100%

CSc1cccc(Cl)c1C(=S)NC(=S)Nc1ccc(Cl)cc1 [Compound 52]
inhibition at 500 µg/mL: 80 to 100%

CC(=O)Oc1cccc(Cl)c1C(=O)NC(=O)Nc1ccc(C(=O)N2CCCCC2)cc1 [Compound 16]
inhibition at 500 µg/mL: 80 to 100%

O=C(NC(=O)c1ccccc1OCc1ccccc1)Nc1ccc(Cl)cc1 [Compound 54, 1-(2-benzyloxybenzoyl)-3-(4-chlorophenyl)urea]
inhibition at 500 µg/mL: 20 to 40%

CCC(=O)Oc1cccc(Cl)c1C(=O)NC(=O)Nc1ccc(Cl)cc1 [Compound 8]
inhibition at 500 µg/mL: 60 to 80%

CC(=O)Oc1ccc(Cl)c(C(=O)NC(=O)Nc2ccc(Cl)cc2)c1Cl [Compound 2]
inhibition at 500 µg/mL: 60 to 80%

Cc1cc(Cl)ccc1NC(=O)NC(=O)c1c(OCc2ccccc2)cccc1OCc1ccccc1 [Compound 22]
inhibition at 500 µg/mL: 40 to 60%

CC(=O)Oc1cccc(Cl)c1C(=O)NC(=O)Nc1ccc(O)c(C(C)=O)c1 [Compound 46]
inhibition at 500 µg/mL: 80 to 100%

CC(=O)Oc1cc(C(F)(F)F)ccc1NC(=O)NC(=O)c1c(F)cccc1F [Compound 25]
inhibition at 500 µg/mL: 80 to 100%

CC(=O)Oc1ccccc1C(=O)NC(=O)Nc1cc(Cl)c(O)c(Cl)c1 [Compound 49]
inhibition at 500 µg/mL: 80 to 100%

CCOC(=O)COc1ccc(NC(=O)NC(=O)c2c(F)cccc2F)cc1C(F)(F)F [Compound 35]
inhibition at 500 µg/mL: 60 to 80%

O=C(NC(=O)c1c(F)cccc1F)Nc1cc(Cl)c(C(=O)c2ccc(Cl)cc2)c(Cl)c1 [Compound 55]
inhibition at 500 µg/mL: 40 to 60%

O=C(NC(=O)c1c(O)cccc1Cl)Nc1ccc(Cl)cc1 [Compound 6]
inhibition at 500 µg/mL: 60 to 80%

O=C(NC(=O)c1c(O)cccc1O)Nc1ccc(Cl)cc1 [Compound 11]
inhibition at 500 µg/mL: 80 to 100%

CC(=O)Oc1cccc(Cl)c1C(=O)NC(=O)Nc1cc(C)ccc1O [Compound 41]
inhibition at 500 µg/mL: 80 to 100%

CC(=O)Oc1cccc(Cl)c1C(=O)NC(=O)Nc1ccc(O)cc1 [Compound 40]
inhibition at 500 µg/mL: 60 to 80%

O=C(NC(=O)c1ccccc1Cl)Nc1ccc(O)cc1OC(F)(F)F [Compound 28]
inhibition at 500 µg/mL: 80 to 100%

CC(=O)Oc1cccc(Cl)c1C(=O)NC(=O)Nc1ccc(C(=O)c2ccccc2)cc1 [Compound 23]
inhibition at 500 µg/mL: 80 to 100%

CC(=O)Oc1ccc(C(=O)NC(=O)Nc2ccc(O)c(C(F)(F)F)c2)cc1Cl [Compound 56]
inhibition at 500 µg/mL: 40 to 60%

O=C(NC(=O)c1ccccc1OC(=O)c1ccccc1)Nc1ccc(Cl)cc1 [Compound 17]
inhibition at 500 µg/mL: 60 to 80%

CC(=O)Oc1cc(OC(F)(F)F)ccc1NC(=O)NC(=O)c1ccccc1Cl [Compound 30]
inhibition at 500 µg/mL: 40 to 60%

CC(=O)Oc1cccc(Cl)c1C(=O)NC(=O)Nc1ccc([N+](=O)[O-])cc1O [Compound 42]
inhibition at 500 µg/mL: 80 to 100%

CC(=O)Oc1ccc(NC(=O)NC(=O)c2cc(C(C)(C)C)c(O)c(C(C)(C)C)c2)cc1 [Compound 47]
inhibition at 500 µg/mL: 60 to 80%

O=C(NC(=O)c1c(Cl)cccc1Cl)Nc1cccc(OC(=O)Nc2ccccc2)c1 [Compound 33]
inhibition at 500 µg/mL: 80 to 100%

O=C(NC(=O)c1cc([N+](=O)[O-])ccc1O)Nc1ccc(Cl)cc1 [Compound 9]
inhibition at 500 µg/mL: 60 to 80%

CC(=O)Oc1cc(Cl)ccc1NC(=O)NC(=O)c1c(F)cccc1F [Compound 24]
inhibition at 500 µg/mL: 80 to 100%

O=C(NC(=O)c1c(Cl)ccc(O)c1Cl)Nc1ccc(Cl)cc1 [Compound 1]
inhibition at 500 µg/mL: 80 to 100%

CC(=O)Oc1c(Cl)cc(C(=O)NC(=O)Nc2ccc(Cl)cc2)cc1Cl [Compound 19]
inhibition at 500 µg/mL: 60 to 80%

O=C(NC(=O)c1cc(Cl)ccc1O)Nc1ccc([N+](=O)[O-])cc1Cl [Compound 20]
inhibition at 500 µg/mL: 40 to 60%

CC(=O)Oc1cccc(Cl)c1C(=O)NC(=O)Nc1cc(Br)cc(Br)c1O [Compound 45, 1-(2-acetoxy-6-chlorobenzoyl)-3-(2-hydroxy-3,5-dibromophenyl)urea]
inhibition at 500 µg/mL: 80 to 100%

O=C(NC(=O)c1cc(Cl)c(O)c(Cl)c1)Nc1ccc(Cl)cc1 [Compound 18]
inhibition at 500 µg/mL: 60 to 80%

CC(=O)Oc1cccc(Cl)c1C(=O)NC(=O)Nc1ccc(OC2CC(C)CCC2C(C)C)cc1 (stereo not drawn) [Compound 15]
inhibition at 500 µg/mL: 60 to 80%

O=C(NC(=O)c1c(F)cccc1F)Nc1ccc(Oc2ccc(Cl)cc2)c(Cl)c1 [Compound 31]
inhibition at 500 µg/mL: 40 to 60%

CC(=O)Oc1cccc(Cl)c1C(=O)NC(=O)Nc1ccc(Cl)cc1 [Compound 7]
inhibition at 500 µg/mL: 80 to 100%

O=C(NC(=O)c1c(F)cccc1F)Nc1ccc(O)c(C(F)(F)F)c1 [Compound 26]
inhibition at 500 µg/mL: 80 to 100%

O=C(NC(=O)c1c(F)cccc1F)Nc1ccc(OC(=O)Oc2ccc(Cl)cc2)cc1 [Compound 57]
inhibition at 500 µg/mL: 20 to 40%

CCCCOC(=O)c1ccc(NC(=O)NC(=O)c2c(Cl)cccc2OC(C)=O)cc1O [Compound 44]
inhibition at 500 µg/mL: 60 to 80%

O=C(NC(=O)c1ccccc1Cl)Nc1ccc(O)c(C(F)(F)F)c1 [Compound 27]
inhibition at 500 µg/mL: 40 to 60%

CC(=O)Oc1cc(NC(=O)NC(=O)c2c(Cl)cccc2OC(C)=O)ccc1Cl [Compound 39]
inhibition at 500 µg/mL: 80 to 100%

CC(=O)Oc1ccc(C)cc1NC(=O)NC(=O)c1c(Cl)cccc1OC(C)=O [Compound 43]
inhibition at 500 µg/mL: 80 to 100%

CC(=O)Oc1ccccc1NC(=S)NC(=O)c1ccccc1 [Compound 51]
inhibition at 500 µg/mL: 60 to 80%

CNC(=O)Oc1ccccc1NC(=O)NC(=O)c1c(Cl)cccc1Cl [Compound 32]
inhibition at 500 µg/mL: 60 to 80%

O=C(NC(=S)Nc1cccc(O)c1)c1ccc(Cl)cc1Cl [Compound 53]
inhibition at 500 µg/mL: 80 to 100%

CC(=O)Oc1cccc(Cl)c1C(=O)NC(=O)Nc1ccc(OC(F)(F)C(F)F)cc1 [Compound 14]
inhibition at 500 µg/mL: 80 to 100%

CC(C)(C)c1cc(NC(=O)NC(=O)c2ccccc2Cl)cc(C(C)(C)C)c1O [Compound 37]
inhibition at 500 µg/mL: 80 to 100%

CC(=O)Oc1cc(C(F)(F)F)ccc1NC(=O)NC(=O)c1ccccc1Cl [Compound 29]
inhibition at 500 µg/mL: 40 to 60%

Cc1cc(Cl)ccc1NC(=O)NC(=O)c1c(O)cccc1O [Compound 13]
inhibition at 500 µg/mL: 60 to 80%

O=C(NC(=O)c1c(Cl)ccc(O)c1Cl)Nc1ccc(C(F)(F)F)cc1 [Compound 4]
inhibition at 500 µg/mL: 80 to 100%
